What all share (assay): biochemical
What all share (format): biochemical

Assay [1] has as its target 363 human kinases (including Aurora A/B/C) (Homo sapiens, UniProt P08922). The settings on record: ROS/ROS1; for remaining activity at 0.5 µM / remaining activity at 0.1 µM: read-out: % Enzyme Activity (relative to DMSO controls); for remaining activity at 0.1 µM: 100 nM.
Excerpt: (§1) However, the Aurora A/B selectivity ratios derived from our in vitro and in vivo data can be compared to prioritize inhibitors.
Assay [2] concerns the target 363 human kinases (including Aurora A/B/C) (Homo sapiens, UniProt P31749). The settings on record: AKT1, [ATP] 100 µM; for remaining activity at 0.5 µM / remaining activity at 0.1 µM: read-out: % Enzyme Activity (relative to DMSO controls); for remaining activity at 0.1 µM: 100 nM.
Excerpt: as §1
Assay [3] addresses T1, 363 human kinases (including Aurora A/B/C) (Homo sapiens, UniProt P36896).
T1 sequence (P36896 24-505): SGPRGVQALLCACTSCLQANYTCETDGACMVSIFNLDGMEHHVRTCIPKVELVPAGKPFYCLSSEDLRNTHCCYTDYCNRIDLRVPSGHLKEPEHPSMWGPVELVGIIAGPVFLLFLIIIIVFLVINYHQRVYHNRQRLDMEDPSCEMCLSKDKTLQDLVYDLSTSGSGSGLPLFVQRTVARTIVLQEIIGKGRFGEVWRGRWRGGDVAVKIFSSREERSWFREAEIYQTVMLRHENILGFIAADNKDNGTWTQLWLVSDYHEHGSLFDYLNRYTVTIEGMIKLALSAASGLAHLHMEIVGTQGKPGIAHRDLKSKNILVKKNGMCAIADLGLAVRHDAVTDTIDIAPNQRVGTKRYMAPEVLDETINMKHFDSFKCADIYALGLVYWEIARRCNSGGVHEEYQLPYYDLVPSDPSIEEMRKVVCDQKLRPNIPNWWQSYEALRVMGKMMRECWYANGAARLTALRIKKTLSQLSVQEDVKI
The settings on record: ALK4/ACVR1B, [ATP] 50 µM; for remaining activity at 0.5 µM / remaining activity at 0.1 µM: read-out: % Enzyme Activity (relative to DMSO controls); for remaining activity at 0.1 µM: 100 nM.
Excerpt: as §1

Assay [4] has as its target 363 human kinases (including Aurora A/B/C) (Homo sapiens, UniProt P50613). The settings on record: CDK7/cyclin H, [ATP] 50 µM; for remaining activity at 0.5 µM / remaining activity at 0.1 µM: read-out: % Enzyme Activity (relative to DMSO controls); for remaining activity at 0.1 µM: 100 nM.
Excerpt: as §1
Assay [5] has as its target T2, 363 human kinases (including Aurora A/B/C) (Homo sapiens, UniProt P54762).
T2 sequence (P54762 18-984): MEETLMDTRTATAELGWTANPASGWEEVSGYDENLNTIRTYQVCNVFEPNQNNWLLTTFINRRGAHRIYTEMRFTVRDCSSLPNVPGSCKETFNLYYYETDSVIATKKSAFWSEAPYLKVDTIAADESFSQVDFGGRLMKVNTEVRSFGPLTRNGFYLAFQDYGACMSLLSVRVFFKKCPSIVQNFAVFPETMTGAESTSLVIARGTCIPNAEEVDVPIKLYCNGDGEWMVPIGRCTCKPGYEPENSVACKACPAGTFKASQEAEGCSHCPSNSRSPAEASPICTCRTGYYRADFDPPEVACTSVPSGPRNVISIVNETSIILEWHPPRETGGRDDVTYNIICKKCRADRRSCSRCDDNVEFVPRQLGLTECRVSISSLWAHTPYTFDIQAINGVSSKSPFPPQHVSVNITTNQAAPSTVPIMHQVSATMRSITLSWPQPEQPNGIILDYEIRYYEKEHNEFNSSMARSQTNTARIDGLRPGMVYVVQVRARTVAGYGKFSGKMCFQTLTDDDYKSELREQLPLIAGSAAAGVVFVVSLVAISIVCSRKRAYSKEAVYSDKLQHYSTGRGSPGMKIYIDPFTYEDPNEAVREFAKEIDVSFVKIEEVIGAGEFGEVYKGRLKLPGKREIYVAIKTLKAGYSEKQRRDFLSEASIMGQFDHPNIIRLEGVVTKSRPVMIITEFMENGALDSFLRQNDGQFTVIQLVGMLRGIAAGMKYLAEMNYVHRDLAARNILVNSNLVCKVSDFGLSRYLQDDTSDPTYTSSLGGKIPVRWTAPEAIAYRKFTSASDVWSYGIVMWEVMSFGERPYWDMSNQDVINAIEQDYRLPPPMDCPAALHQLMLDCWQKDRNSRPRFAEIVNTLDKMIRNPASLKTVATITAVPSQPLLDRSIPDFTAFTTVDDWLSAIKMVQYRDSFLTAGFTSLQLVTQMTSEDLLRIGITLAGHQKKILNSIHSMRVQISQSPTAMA
The settings on record: EPHB1, [ATP] 100 µM; for remaining activity at 0.5 µM / remaining activity at 0.1 µM: read-out: % Enzyme Activity (relative to DMSO controls); for remaining activity at 0.1 µM: 100 nM.
Excerpt: as §1

Assay [6] concerns the target 363 human kinases (including Aurora A/B/C) (Homo sapiens, UniProt Q00526). The settings on record: CDK3/cyclin E, [ATP] 30 µM; for remaining activity at 0.5 µM / remaining activity at 0.1 µM: read-out: % Enzyme Activity (relative to DMSO controls); for remaining activity at 0.1 µM: 100 nM.
Excerpt: as §1
The target in assay [7] is T3, 363 human kinases (including Aurora A/B/C) (Homo sapiens, UniProt Q9UF33).
T3 sequence (Q9UF33 23-1036): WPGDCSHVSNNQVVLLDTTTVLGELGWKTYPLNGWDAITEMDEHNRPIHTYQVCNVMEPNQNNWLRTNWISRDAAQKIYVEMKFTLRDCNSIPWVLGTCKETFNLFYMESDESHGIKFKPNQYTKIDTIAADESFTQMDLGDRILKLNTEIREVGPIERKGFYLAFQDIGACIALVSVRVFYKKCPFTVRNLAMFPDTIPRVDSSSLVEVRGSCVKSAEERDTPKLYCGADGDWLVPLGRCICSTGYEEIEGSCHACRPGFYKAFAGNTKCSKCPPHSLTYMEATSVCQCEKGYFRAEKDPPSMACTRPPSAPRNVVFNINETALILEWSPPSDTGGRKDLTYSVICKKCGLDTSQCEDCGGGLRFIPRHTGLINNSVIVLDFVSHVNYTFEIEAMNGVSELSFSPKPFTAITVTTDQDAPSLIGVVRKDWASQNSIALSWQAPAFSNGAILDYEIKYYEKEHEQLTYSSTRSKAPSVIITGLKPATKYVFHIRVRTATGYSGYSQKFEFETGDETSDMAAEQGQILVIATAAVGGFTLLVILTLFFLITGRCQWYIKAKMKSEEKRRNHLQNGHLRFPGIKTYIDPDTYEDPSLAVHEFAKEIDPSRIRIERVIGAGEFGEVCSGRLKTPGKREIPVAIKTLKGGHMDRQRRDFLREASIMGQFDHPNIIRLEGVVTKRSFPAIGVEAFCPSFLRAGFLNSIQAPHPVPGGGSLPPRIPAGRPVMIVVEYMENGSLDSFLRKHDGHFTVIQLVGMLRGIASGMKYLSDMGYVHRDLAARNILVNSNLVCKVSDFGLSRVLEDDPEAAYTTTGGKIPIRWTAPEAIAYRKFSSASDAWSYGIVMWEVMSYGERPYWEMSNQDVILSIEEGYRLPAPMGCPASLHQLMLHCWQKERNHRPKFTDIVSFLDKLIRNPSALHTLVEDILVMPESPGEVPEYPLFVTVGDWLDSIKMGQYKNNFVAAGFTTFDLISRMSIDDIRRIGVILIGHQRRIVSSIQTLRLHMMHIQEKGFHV
The settings on record: EPHA6, [ATP] 100 µM; for remaining activity at 0.5 µM / remaining activity at 0.1 µM: read-out: % Enzyme Activity (relative to DMSO controls); for remaining activity at 0.1 µM: 100 nM.
Excerpt: as §1

Sequence of 363 human kinases (including Aurora A/B/C) (Homo sapiens, UniProt P50613) (P50613 whole entry): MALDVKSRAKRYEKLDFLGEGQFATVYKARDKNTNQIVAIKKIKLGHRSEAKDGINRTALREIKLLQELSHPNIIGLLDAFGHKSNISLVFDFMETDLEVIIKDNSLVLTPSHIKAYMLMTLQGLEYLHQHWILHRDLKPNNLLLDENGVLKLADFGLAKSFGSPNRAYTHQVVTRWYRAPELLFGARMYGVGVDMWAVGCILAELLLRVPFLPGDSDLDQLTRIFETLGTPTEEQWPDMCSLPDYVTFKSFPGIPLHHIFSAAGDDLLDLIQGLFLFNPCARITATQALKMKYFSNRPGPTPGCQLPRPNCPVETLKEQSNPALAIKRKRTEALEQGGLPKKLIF
Sequence of 363 human kinases (including Aurora A/B/C) (Homo sapiens, UniProt Q00526) (Q00526 whole entry): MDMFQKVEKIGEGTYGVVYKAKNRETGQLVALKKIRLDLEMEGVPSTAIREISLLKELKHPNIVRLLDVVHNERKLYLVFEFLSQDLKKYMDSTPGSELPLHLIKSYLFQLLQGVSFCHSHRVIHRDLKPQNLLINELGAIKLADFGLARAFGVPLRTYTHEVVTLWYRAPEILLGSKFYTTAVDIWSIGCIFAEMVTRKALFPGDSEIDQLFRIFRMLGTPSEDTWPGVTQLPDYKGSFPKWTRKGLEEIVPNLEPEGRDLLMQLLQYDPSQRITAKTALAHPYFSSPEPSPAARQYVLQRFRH
Sequence of 363 human kinases (including Aurora A/B/C) (Homo sapiens, UniProt P08922) (P08922 28-2347): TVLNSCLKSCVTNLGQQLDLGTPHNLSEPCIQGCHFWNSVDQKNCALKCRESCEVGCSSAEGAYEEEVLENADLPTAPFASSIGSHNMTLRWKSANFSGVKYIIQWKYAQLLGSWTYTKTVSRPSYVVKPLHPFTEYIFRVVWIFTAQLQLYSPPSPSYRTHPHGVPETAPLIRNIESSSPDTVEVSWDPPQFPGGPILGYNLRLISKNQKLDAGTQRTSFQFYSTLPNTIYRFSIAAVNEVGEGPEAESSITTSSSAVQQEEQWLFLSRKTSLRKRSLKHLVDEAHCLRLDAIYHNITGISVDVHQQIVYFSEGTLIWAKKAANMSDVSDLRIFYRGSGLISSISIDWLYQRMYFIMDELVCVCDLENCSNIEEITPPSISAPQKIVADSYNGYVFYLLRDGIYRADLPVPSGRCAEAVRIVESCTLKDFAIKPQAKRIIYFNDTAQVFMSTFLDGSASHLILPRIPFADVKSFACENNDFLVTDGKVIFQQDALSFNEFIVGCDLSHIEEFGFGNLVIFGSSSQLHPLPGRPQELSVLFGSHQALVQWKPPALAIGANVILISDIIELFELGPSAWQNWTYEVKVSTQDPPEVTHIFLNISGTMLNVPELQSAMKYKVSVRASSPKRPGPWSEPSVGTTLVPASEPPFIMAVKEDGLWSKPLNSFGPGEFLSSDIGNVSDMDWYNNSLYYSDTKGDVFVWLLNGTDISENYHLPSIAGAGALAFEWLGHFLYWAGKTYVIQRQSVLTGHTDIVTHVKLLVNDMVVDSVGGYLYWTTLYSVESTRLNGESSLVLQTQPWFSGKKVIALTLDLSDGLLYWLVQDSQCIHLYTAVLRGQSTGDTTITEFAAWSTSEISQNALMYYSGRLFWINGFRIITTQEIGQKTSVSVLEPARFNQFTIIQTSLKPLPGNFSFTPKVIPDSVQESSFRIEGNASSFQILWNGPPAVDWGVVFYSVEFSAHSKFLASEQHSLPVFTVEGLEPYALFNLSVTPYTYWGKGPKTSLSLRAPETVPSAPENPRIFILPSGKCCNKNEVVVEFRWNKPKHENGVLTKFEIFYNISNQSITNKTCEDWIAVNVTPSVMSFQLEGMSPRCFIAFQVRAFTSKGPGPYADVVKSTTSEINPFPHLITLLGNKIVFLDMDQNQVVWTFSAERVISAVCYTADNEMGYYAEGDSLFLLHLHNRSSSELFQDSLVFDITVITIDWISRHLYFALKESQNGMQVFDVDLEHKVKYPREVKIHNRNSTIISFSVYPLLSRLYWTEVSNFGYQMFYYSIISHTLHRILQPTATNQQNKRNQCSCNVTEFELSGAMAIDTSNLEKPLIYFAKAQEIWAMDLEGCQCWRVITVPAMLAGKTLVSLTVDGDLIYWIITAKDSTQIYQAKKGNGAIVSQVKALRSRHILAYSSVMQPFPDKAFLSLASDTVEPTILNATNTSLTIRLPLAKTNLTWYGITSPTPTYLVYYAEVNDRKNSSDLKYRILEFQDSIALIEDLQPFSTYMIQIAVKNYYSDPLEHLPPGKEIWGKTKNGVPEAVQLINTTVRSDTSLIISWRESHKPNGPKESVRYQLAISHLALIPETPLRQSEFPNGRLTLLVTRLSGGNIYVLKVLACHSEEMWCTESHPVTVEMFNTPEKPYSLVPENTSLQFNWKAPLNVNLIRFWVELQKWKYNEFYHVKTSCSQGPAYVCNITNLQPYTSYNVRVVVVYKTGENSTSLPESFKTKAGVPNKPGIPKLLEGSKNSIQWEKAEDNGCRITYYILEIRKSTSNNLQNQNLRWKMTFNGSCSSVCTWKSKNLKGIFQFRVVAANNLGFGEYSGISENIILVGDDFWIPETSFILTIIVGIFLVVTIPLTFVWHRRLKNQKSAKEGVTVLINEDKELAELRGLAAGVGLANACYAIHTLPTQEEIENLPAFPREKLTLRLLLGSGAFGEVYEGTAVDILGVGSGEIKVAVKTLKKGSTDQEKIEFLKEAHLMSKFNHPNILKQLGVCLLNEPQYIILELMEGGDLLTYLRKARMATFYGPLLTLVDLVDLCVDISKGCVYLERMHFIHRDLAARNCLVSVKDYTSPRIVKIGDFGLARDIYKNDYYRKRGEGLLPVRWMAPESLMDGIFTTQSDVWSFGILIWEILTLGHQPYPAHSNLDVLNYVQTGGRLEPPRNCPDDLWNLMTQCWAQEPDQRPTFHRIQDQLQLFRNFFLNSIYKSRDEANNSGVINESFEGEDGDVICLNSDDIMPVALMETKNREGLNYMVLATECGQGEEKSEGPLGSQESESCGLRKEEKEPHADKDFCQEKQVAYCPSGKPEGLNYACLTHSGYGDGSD
Sequence of 363 human kinases (including Aurora A/B/C) (Homo sapiens, UniProt P31749) (P31749 whole entry): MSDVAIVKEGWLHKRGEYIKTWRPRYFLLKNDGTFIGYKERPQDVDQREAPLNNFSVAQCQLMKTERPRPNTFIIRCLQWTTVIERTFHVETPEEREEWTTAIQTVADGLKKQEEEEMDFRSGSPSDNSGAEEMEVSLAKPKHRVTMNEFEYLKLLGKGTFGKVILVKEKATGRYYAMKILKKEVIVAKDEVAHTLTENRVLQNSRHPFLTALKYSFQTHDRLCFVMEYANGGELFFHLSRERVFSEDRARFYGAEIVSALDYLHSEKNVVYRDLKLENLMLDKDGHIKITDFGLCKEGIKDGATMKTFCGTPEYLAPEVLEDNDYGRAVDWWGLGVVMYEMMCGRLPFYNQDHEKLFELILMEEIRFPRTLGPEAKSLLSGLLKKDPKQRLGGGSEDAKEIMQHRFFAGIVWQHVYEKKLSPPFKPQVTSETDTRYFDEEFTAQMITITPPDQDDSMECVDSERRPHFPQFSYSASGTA

In the case of `O=C(c1cccc(Cl)c1F)N1CCN(Cc2cccc(Nc3nccs3)n2)CC1` [MK-8745], the “% Enzyme Activity (relative to DMSO controls)” value in assay [1] (500 nM) was determined as 3.19%; in assay [2] (500 nM), 95.86%; in assay [3] (500 nM), 133.43%; in assay [4] (500 nM), 107.62%; in assay [5] (500 nM) it was 65.66%; in assay [6] (500 nM) it was 77.67%. For the same molecule, the “% Enzyme Activity (relative to DMSO controls)” value in assay [7] (500 nM) turned out to be 34.30%. Moreover, the remaining activity at 0.5 µM was determined as 3.49% in assay [1] (500 nM); 97.4% in assay [2] (500 nM); 137% in assay [3] (500 nM); 110% in assay [4] (500 nM); 65.9% in assay [5] (500 nM); 78.6% in assay [6] (500 nM). In addition, the remaining activity at 0.5 µM in assay [7] (500 nM) is 34.6%.
As for `CCn1cc(-c2ccnc3[nH]c(-c4cccc(CN(C)C)c4)cc23)c(-c2ccc(NC(=O)N(C)C)cc2)n1` [GSK1070916], the remaining activity at 0.1 µM turned out to be 102% in assay [1]; 105% in assay [2]; 102% in assay [3]; 109% in assay [4]; 89.2% in assay [5]; 83.7% in assay [6]. Moreover, the remaining activity at 0.1 µM in assay [7] turned out to be 89.4%.
`O=C(O)[C@]1(Cc2cccc(Nc3nccs3)n2)CC[C@@H](Oc2cccc(Cl)c2F)CC1` [MK-5108]: the remaining activity at 0.1 µM in assay [1] came to 0.98%; in assay [2] it was 116%; in assay [3], 106%; in assay [4], 95.9%; in assay [5], 42.4%; in assay [6], 88.3%. For the same molecule, the remaining activity at 0.1 µM in assay [7] was 5.77%. For the same molecule, the remaining activity at 0.5 µM in assay [1] (500 nM) stood at 1.15%; in assay [2] (500 nM), 102%; in assay [3] (500 nM), 92.9%; in assay [4] (500 nM), 112%; in assay [5] (500 nM), 13.9%; in assay [6] (500 nM) it was 80.5%. Moreover, in assay [7] (500 nM), the remaining activity at 0.5 µM stood at 1.6%.

For the origin of these results see publication PMC4685510, “A Cell Biologist’s Field Guide to Aurora Kinase Inhibitors” (Frontiers in Oncology, 2015).
